Results on 56 molecules are retold here after ChEMBL document CHEMBL1138611, “Oxadiazolylindazole sodium channel modulators are neuroprotective toward hippocampal neurones” (J Med Chem, 2009).

Bounds are passed on as bounds.

The target in assay [1] is Cytochrome P450 2D6 (Homo sapiens, UniProt P10635). As to the kind of experiment: Inhibition of human recombinant CYP2D6. Format: ADME.
The test system of assay [2] is Hippocampus. Briefly: Neuroprotective activity in Wistar rat hippocampal slices assessed as ATP concentration at 50 uM relative to tetrodotoxin. Type of assay: functional.
A short description of assay [3]: Inhibition of voltage-gated sodium channel in Wistar rat forebrain synaptosomes assessed as inhibition of [14C]guanidium ion flux. Type of assay: subcellular, Brain.
In assay [4] the target is T1, Cytochrome P450 1A2 (Homo sapiens, UniProt P05177).
T1 sequence (P05177 whole entry): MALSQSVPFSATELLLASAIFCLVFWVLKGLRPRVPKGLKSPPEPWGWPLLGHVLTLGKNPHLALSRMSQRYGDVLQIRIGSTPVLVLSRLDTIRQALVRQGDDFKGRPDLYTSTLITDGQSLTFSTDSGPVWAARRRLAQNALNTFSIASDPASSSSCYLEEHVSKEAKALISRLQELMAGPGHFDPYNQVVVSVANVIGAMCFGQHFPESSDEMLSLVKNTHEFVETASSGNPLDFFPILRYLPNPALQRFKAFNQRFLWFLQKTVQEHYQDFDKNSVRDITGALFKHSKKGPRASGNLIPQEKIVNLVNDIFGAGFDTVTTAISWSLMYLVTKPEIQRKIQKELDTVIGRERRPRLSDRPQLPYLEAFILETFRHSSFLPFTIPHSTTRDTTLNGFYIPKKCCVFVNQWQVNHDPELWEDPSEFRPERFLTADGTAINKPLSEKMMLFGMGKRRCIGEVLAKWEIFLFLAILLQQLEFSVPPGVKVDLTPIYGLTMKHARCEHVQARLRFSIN
As to the kind of experiment: Inhibition of human recombinant CYP1A2. Format: ADME.

Cytochrome P450 2D6, sequence (P10635 whole entry): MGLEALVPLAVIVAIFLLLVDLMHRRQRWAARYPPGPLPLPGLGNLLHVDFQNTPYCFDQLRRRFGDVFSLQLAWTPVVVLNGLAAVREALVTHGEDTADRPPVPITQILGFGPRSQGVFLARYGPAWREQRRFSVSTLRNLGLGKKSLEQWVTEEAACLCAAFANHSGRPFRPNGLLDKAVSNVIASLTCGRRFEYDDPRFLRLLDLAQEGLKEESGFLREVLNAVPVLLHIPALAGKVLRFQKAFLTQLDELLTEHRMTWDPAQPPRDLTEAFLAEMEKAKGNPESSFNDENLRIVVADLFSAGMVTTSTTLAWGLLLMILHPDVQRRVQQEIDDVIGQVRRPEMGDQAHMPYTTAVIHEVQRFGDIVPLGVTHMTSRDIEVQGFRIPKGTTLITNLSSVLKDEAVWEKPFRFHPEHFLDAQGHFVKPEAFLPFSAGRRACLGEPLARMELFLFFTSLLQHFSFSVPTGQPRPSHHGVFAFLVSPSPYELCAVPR

On to `COc1ccc(S(=O)(=O)n2nc(-c3nc(CNC(=O)OC(C)(C)C)no3)c3ccccc32)cc1OC`, for which the IC50 in assay [1] is 20 µM; in assay [3], 2 µM. Besides, the Activity in assay [2] is 10%.

Turning to `Cc1cccc(Cn2nc(-c3nc(CN)no3)c3ccccc32)c1`, the IC50 was 0.084 µM in assay [4], 3.96 µM in assay [1] and 28 µM in assay [3]. The Activity in assay [2] is listed as 45%.

Turning to `COc1ccc(S(=O)(=O)n2nc(-c3nc(CN)no3)c3ccccc32)cc1OC`, the concentration for half-maximal inhibition (IC50) is above 10 µM in assay [4], 2.9 µM in assay [1] and 102 µM in assay [3]. Besides, the Activity in assay [2] was found to be 2%.

As for `CC(C)(C)OC(=O)NCc1noc(-c2c3ccccc3nn2Cc2cccc(Cl)c2)n1`, the Activity in assay [2] turned out to be 0%. In addition, in assay [3], the IC50 was found to be 4 µM.

With `Cc1cc(C)cc(Cn2nc(-c3nc(CN)no3)c3ccccc32)c1`, the results for the IC50 in assay [4], in assay [1] and in assay [3] were 0.062 µM, 3.73 µM and 15 µM, respectively. Also, the Activity in assay [2] was found to be 43%.

Consider `CC(C)(C)OC(=O)NCc1noc(-c2c3ccccc3nn2CCc2ccccc2)n1`, for which the Activity in assay [2] amounted to 0%. Also, in assay [3], the IC50 was 85 µM.

In the case of `NCc1noc(-c2c3ccccc3nn2Cc2ccc3c(c2)OCO3)n1`, the Activity in assay [2] is recorded as 55%. Moreover, the concentration for half-maximal inhibition (IC50) in assay [3] came to 34 µM.

On to `CC(C)(C)OC(=O)NCc1noc(-c2nn(Cc3ccc(-c4cn[nH]c4)cc3)c3ccccc23)n1`, for which the results for the IC50 in assay [1] and in assay [3] were above 10 µM and 16 µM, respectively. Further, the Activity in assay [2] was found to be 20%.

With `Cc1cc(C)cc(Cn2nc(-c3nc(CNC(=O)OC(C)(C)C)no3)c3ccccc32)c1`, in assay [2], the Activity is recorded as 0%. Moreover, in assay [3], the IC50 amounted to 4 µM.

As for `NCc1noc(-c2nn(Cc3cccc(OC(F)(F)F)c3)c3ccccc23)n1`, in assay [2], the Activity was 33%. Besides, the IC50 in assay [3] came to 26 µM.

`CC(C)(C)OC(=O)NCc1noc(-c2nn(CCOc3ccccc3)c3ccccc23)n1`: the Activity in assay [2] was determined as 8%. Further, the IC50 in assay [3] was 6 µM.

Take `CC(C)(C)OC(=O)NCc1noc(-c2nn(Cc3ccccc3)c3ccccc23)n1`: the Activity in assay [2] was 19%. The IC50 in assay [3] was 5 µM.

Consider `Cc1nc(-c2ccc(Cn3nc(-c4nc(CN)no4)c4ccccc43)cc2)no1`, for which the IC50 in assay [3] was determined as 58 µM.

In the case of `CC(C)(C)OC(=O)NCc1noc(-c2c3ccccc3nn2Cc2ccccc2)n1`, the Activity in assay [2] is listed as 25%. Besides, in assay [3], the half-inhibitory concentration (IC50) turned out to be 174 µM.

`CC(C)(C)OC(=O)NCc1noc(-c2n[nH]c3ccccc23)n1`: the IC50 in assay [4] is 0.79 µM; in assay [1], above 10 µM; in assay [3], 96 µM. In assay [2], the Activity was 0%.

For the molecule `NCc1noc(-c2nn(Cc3cc(F)cc(F)c3F)c3ccccc23)n1`, in assay [2], the Activity is reported as 59%. For the same molecule, in assay [3], the IC50 was 35 µM.

Regarding `CC(=O)n1nc(-c2nc(CN)no2)c2ccccc21`, the IC50 in assay [1] is above 10 µM; in assay [3] it was above 300 µM. The Activity in assay [2] is recorded as 24%.

In the case of `NCc1noc(-c2n[nH]c3ccccc23)n1`, the IC50 stood at 0.21 µM in assay [4], 1 µM in assay [1] and 2190 µM in assay [3]. Moreover, the Activity in assay [2] is 10%.

For `CC(C)(C)OC(=O)NCc1noc(-c2nn(Cc3cccc(OC(F)(F)F)c3)c3ccccc23)n1`, the Activity in assay [2] is recorded as 0%. Further, the IC50 in assay [3] worked out at 0.9 µM.

As to `Cc1ccc(Cn2nc(-c3nc(CNC(=O)OC(C)(C)C)no3)c3ccccc32)cc1`, the Activity in assay [2] turned out to be 0%. Besides, the IC50 in assay [3] is 2 µM.

For `CC(C)(C)OC(=O)NCc1noc(-c2c3ccccc3nn2Cc2ccc3c(c2)OCO3)n1`, the Activity in assay [2] is 0%. Further, in assay [3], the IC50 was 3 µM.

With `Cc1ccc(Cn2nc(-c3nc(CN)no3)c3ccccc32)cc1`, the Activity in assay [2] is on record as 34%. In assay [3], the IC50 was 17 µM.

Take `CC(C)(C)OC(=O)NCc1noc(-c2nn(Cc3cccc(Cl)c3)c3ccccc23)n1`: in assay [2], the Activity was 12%. The 50% inhibitory concentration (IC50) in assay [3] was found to be 4 µM.

For `CC(C)(C)OC(=O)NCc1noc(-c2nn(Cc3ccccc3Cl)c3ccccc23)n1`, the Activity in assay [2] is 9%. Further, the IC50 in assay [3] is above 300 µM.

For `COc1cc(Cn2nc(-c3nc(CN)no3)c3ccccc32)cc(OC)c1OC`, the Activity in assay [2] worked out at 28%. Further, the IC50 in assay [3] is 178 µM.

Regarding `NCc1noc(-c2nn(Cc3ccc4ccccc4c3)c3ccccc23)n1`, the Activity in assay [2] is on record as 11%. The IC50 in assay [3] was 20 µM.

Regarding `CC(=O)Nc1ccc(Cn2nc(-c3nc(CN)no3)c3ccccc32)cc1`, the Activity in assay [2] was found to be 10%. Further, the IC50 in assay [3] worked out at 309 µM.

As to `CC(C)(C)OC(=O)NCc1noc(-c2nn(Cc3ccc4c(c3)OCO4)c3ccccc23)n1`, the concentration for half-maximal inhibition (IC50) in assay [4] turned out to be 4.86 µM; in assay [1] it was 3.3 µM; in assay [3], 1 µM. Further, in assay [2], the Activity is reported as 0%.

As to `Cc1cccc(Cn2nc(-c3nc(CNC(=O)OC(C)(C)C)no3)c3ccccc32)c1`, the IC50 was 20 µM in assay [1] and 1 µM in assay [3]. The Activity in assay [2] was determined as 0%.

Turning to `Cc1cccc(Cn2nc3ccccc3c2-c2nc(CNC(=O)OC(C)(C)C)no2)c1`, in assay [2], the Activity came out at 0%. Further, the IC50 in assay [3] was determined as 151 µM.

For `NCc1noc(-c2nn(CCOc3ccccc3)c3ccccc23)n1`, in assay [2], the Activity worked out at 40%. In addition, the IC50 in assay [3] worked out at 30 µM.

Regarding `Cc1cc(C)cc(Cn2nc3ccccc3c2-c2nc(CN)no2)c1`, the Activity in assay [2] was found to be 35%. In addition, the IC50 in assay [3] worked out at 14 µM.

In the case of `CC(C)(C)OC(=O)NCc1noc(-c2nn(Cc3cccc(C(F)(F)F)c3)c3ccccc23)n1`, in assay [2], the Activity worked out at 3%. Moreover, the IC50 in assay [3] turned out to be 8 µM.

For `Cc1cc(C)cc(Cn2nc3ccccc3c2-c2nc(CNC(=O)OC(C)(C)C)no2)c1`, the Activity in assay [2] amounted to 0%. In addition, in assay [3], the IC50 came to 12 µM.

Regarding `CC(=O)Nc1ccc(Cn2nc(-c3nc(CNC(=O)OC(C)(C)C)no3)c3ccccc32)cc1`, the results for the half-maximal inhibitory concentration (IC50) in assay [4], in assay [1] and in assay [3] were 5.92 µM, 13 µM and 15 µM, respectively. The Activity in assay [2] is 47%.

With `CC(C)(C)OC(=O)NCc1noc(-c2nn(Cc3cc(F)cc(F)c3F)c3ccccc23)n1`, in assay [2], the Activity was 0%. In addition, the IC50 in assay [3] amounted to 1 µM.

`Cc1cccc(Cn2nc3ccccc3c2-c2nc(CN)no2)c1`: the Activity in assay [2] is on record as 37%. The IC50 in assay [3] is 26 µM.

As to `CC(C)(C)OC(=O)NCc1noc(-c2nn(CCc3ccccc3)c3ccccc23)n1`, in assay [2], the Activity amounted to 0%. The IC50 in assay [3] amounted to 5 µM.

Turning to `Cc1nc(-c2ccc(Cn3nc(-c4nc(CNC(=O)OC(C)(C)C)no4)c4ccccc43)cc2)no1`, in assay [3], the IC50 worked out at 1 µM.

For the molecule `CC(C)(C)OC(=O)NCc1noc(-c2nn(Cc3ccc(C(N)=O)cc3)c3ccccc23)n1`, the IC50 was above 10 µM in assay [1] and 24 µM in assay [3]. In addition, in assay [2], the Activity came out at 29%.

As for `NCc1noc(-c2nn(Cc3cccc(Cl)c3)c3ccccc23)n1`, in assay [2], the Activity was 50%. Moreover, the IC50 in assay [3] came to 14 µM.

As to `COc1cc(Cn2nc(-c3nc(CNC(=O)OC(C)(C)C)no3)c3ccccc32)cc(OC)c1OC`, the Activity in assay [2] was determined as 0%. Further, the IC50 in assay [3] turned out to be 195 µM.

`COc1ccc(Cn2nc(-c3nc(CNC(=O)OC(C)(C)C)no3)c3ccccc32)cc1`: the Activity in assay [2] was 0%. In addition, the IC50 in assay [3] is 4 µM.

Turning to `Cc1ccccc1Cn1nc(-c2nc(CNC(=O)OC(C)(C)C)no2)c2ccccc21`, the Activity in assay [2] is given as 0%. Also, the IC50 in assay [3] turned out to be 3 µM.

For the molecule `O=S(=O)(NCc1noc(-c2nn(Cc3ccccc3)c3ccccc23)n1)c1ccccc1`, the Activity in assay [2] turned out to be 20%. In addition, the IC50 in assay [3] is 5 µM.

`COc1ccc(Cn2nc(-c3nc(CN)no3)c3ccccc32)cc1`: the Activity in assay [2] was 35%. For the same molecule, in assay [3], the IC50 was 38 µM.

On to `NCc1noc(-c2nn(Cc3cccc(C(F)(F)F)c3)c3ccccc23)n1`, for which the Activity in assay [2] came out at 58%. Besides, in assay [3], the IC50 came to 26 µM.

Turning to `NCc1noc(-c2nn(Cc3ccccc3Cl)c3ccccc23)n1`, the Activity in assay [2] is 43%. The IC50 in assay [3] turned out to be 20 µM.

On to `NCc1noc(-c2nn(Cc3ccc(-c4cn[nH]c4)cc3)c3ccccc23)n1`, for which the Activity in assay [2] was found to be 26%. The IC50 in assay [3] is 63 µM.

Regarding `CC(=O)n1nc(-c2nc(CNC(=O)OC(C)(C)C)no2)c2ccccc21`, the IC50 is above 10 µM in assay [1] and 132 µM in assay [3]. Further, in assay [2], the Activity turned out to be 4%.

Regarding `NCc1noc(-c2nn(Cc3ccc(C(N)=O)cc3)c3ccccc23)n1`, the IC50 came out at 1.3 µM in assay [1] and 195 µM in assay [3]. The Activity in assay [2] came out at 8%.

`O=C(NCc1noc(-c2nn(Cc3ccccc3)c3ccccc23)n1)OCc1ccccc1`: in assay [2], the Activity is given as 12%. Moreover, the IC50 in assay [3] stood at 5 µM.

`O=C(NCc1noc(-c2nn(Cc3ccccc3)c3ccccc23)n1)c1ccccc1`: in assay [2], the Activity was 23%. Besides, the IC50 in assay [3] amounted to 18 µM.

With `CC(C)(C)OC(=O)NCc1noc(-c2nn(Cc3ccc4ccccc4c3)c3ccccc23)n1`, the Activity in assay [2] is 0%. The 50% inhibitory concentration (IC50) in assay [3] is 0.4 µM.

As to `NCc1noc(-c2nn(Cc3ccc4c(c3)OCO4)c3ccccc23)n1`, in assay [2], the Activity is listed as 44%. For the same molecule, the IC50 in assay [3] worked out at 30 µM.

With `Cc1ccccc1Cn1nc(-c2nc(CN)no2)c2ccccc21`, the Activity in assay [2] turned out to be 46%. In assay [3], the IC50 came to 26 µM.
